Experiment [1] concerns NCI/ADR-RES. Put plainly: Inhibition of P-gp in human MCF7/ADR cells assessed as increase in intracellular adriamycin accumulation at 10 uM after 3 hrs by flow cytometry relative to control. It counts as cell-based.
The test system of experiment [2] is NCI/ADR-RES. Briefly: Inhibition of P-gp in human MCF7/ADR cells assessed as increase in intracellular adriamycin accumulation at 20 uM after 3 hrs by flow cytometry. Type of experiment: cell-based. For orientation: In flow cytometry, cells or beads pass a laser one at a time.
Experiment [3] relates to NCI/ADR-RES. Briefly: Inhibition of P-gp in human MCF7/ADR cells assessed as potentiation of adriamycin-induced cytotoxic activity at 20 uM after 48 hrs by MTT assay relative to control. Type of experiment: cell-based.
Experiment [4] can be described thus: Cytotoxicity against human MCF7 cells assessed as inhibition of cell survival rate at 50 uM after 48 hrs by MTT assay relative to control. Particulars: MCF7, 48 h. It counts as functional.
Experiment [5] has as its system NCI/ADR-RES. Put plainly: Inhibition of P-gp in human MCF7/ADR cells assessed as increase in intracellular rhodamine123 accumulation at 10 to 20 uM incubated for 4 hrs in dark condition by flow cytometry. Type of experiment: cell-based.
Experiment [6] in a line: Cytotoxicity against human MCF7 cells assessed as inhibition of cell survival rate after 48 hrs by MTT assay. Type of experiment: functional, cell-based. Conditions: MCF7, 48 h. Background: Tetrazolium assays rely on reduction of a dye to a coloured formazan, in cell work by metabolically active cells.
Experiment [7] relates to NCI/ADR-RES. Put plainly: Reversal index, ratio of IC50 for human MCF7/ADR cells to IC50 for human MCF7 cells. It counts as functional.
Experiment [8] can be described thus: Cytotoxicity against human MCF7/ADR cells assessed as inhibition of cell survival rate after 48 hrs by MTT assay. It counts as functional, cell-based. Conditions: NCI/ADR-RES.
Experiment [9] deals with NCI/ADR-RES. Put plainly: Inhibition of P-gp in human MCF7/ADR cells assessed as potentiation of adriamycin-induced cell death by measuring dead cell levels at 10 uM after 48 hrs by 7-AAD staining-based flow cytometry. Further details: scale not given: the % may be the effect or the level left.

These results are taken from ChEMBL document CHEMBL3856213, “neo-Clerodane diterpenoids from Scutellaria barbata mediated inhibition of P-glycoprotein in MCF-7/ADR cells” (Eur J Med Chem, 2016).

A word on the inhibition: it is how much of the control response was suppressed. In general, IC50 refers to the concentration at which inhibition is half-maximal.

The source made the active and inactive calls. No cut-off for these calls is given here.

Take `CC1=CC[C@@H](OC(=O)c2ccccc2)[C@H]2[C@@]1(C)[C@@H](OC(=O)c1cccnc1)[C@H](O)[C@]1(C)O[C@@]3(CC[C@]21C)COC(=O)C3`: the inhibition entry in [1], in [2] and in experiment [5] was “Active” in each case. For the same molecule, in experiment [3], the fold change (FC) was 33.4. In [4], the inhibition at 50 µM turned out to be 41.3%.
Take `CC1=CC[C@@H](OC(=O)c2cccnc2)[C@H]2[C@@]1(C)[C@@H](OC(=O)c1cccnc1)[C@H](O)[C@]1(C)O[C@@]3(CC[C@]21C)COC(=O)C3`: the inhibition entry in experiment [1], in experiment [2] and in [5] was “Active” each time. Moreover, in experiment [3], the fold change (FC) was determined as 11.4. Further, in [4], the inhibition at 50 µM is 15.1%.
As for `CC(=O)O[C@@H](CC1=C(O)C(=O)OC1)[C@]1(C)[C@H]2CCC=C(C)[C@]2(C)[C@@H](OC(=O)c2cccnc2)[C@H](OC(=O)c2ccccc2)[C@]1(C)O`, the fold change (FC) in experiment [3] came to 2. Besides, in experiment [4], the inhibition at 50 µM worked out at 23.1%.
As to `CC1=CC[C@@H](OC(=O)c2ccccc2)[C@H]2[C@@]1(C)[C@@H](OC(=O)c1cccnc1)[C@H](O)[C@]1(C)O[C@]3(CC[C@]21C)COC(=O)C3` (relative stereo), the inhibition entry in [1], in experiment [2] and in experiment [5] was “Active” each time. Further, the fold change (FC) in experiment [3] came to 17.8. Besides, in experiment [4], the inhibition at 50 µM was found to be 20.1%.
`CC[C@]1(O)C[C@H]2CN(CCc3c([nH]c4ccccc34)[C@@](C(=O)OC)(c3cc4c(cc3OC)N(C=O)[C@H]3[C@@](O)(C(=O)OC)[C@H](OC(C)=O)[C@]5(CC)C=CCN6CC[C@]43[C@@H]65)C2)C1` [VINCRISTINE]: the IC50 in experiment [6] stood at 1.3 µM; in [8], 62.8 µM. In addition, the “Ratio IC50” value in experiment [7] was found to be 48.3.
For the molecule `CC(=O)O[C@@H](CC1=C(O)C(=O)OC1)[C@]1(C)[C@H]2CCC=C(C)[C@]2(C)[C@@H](OC(=O)c2cccnc2)[C@H](O)[C@]1(C)O`, the fold change (FC) in [3] was 1.5. Moreover, the inhibition at 50 µM in [4] worked out at 18.5%.
As for `COc1ccc(CCN(C)CCCC(C#N)(c2ccc(OC)c(OC)c2)C(C)C)cc1OC` (stereo not drawn), the fold change (FC) in experiment [1] amounted to 2.1; in experiment [3] it was 20.4. The Activity in experiment [9] came to 46.7%.
Turning to `CC(=O)O[C@@H](CC1=C(O)C(=O)OC1)[C@]1(C)[C@H]2CCC=C(C)[C@]2(C)[C@@H](OC(=O)c2cccnc2)[C@H](OC(=O)c2cccnc2)[C@]1(C)O`, the fold change (FC) in [3] is 3.3. Moreover, the inhibition at 50 µM in [4] was 17.1%.
As to `CC(=O)O[C@H]1[C@H](OC(C)=O)[C@]2(C)O[C@]3(CC[C@]2(C)[C@H]2[C@H](OC(=O)c4cccnc4)CC=C(C)[C@]12C)COC(=O)C3`, the fold change (FC) in [3] is 13. Moreover, the inhibition at 50 µM in experiment [4] was 19.5%. Further, the inhibition result in experiment [5] is “Active”.
On to `CC1=CC[C@@H](OC(=O)c2cccnc2)[C@H]2[C@@]1(C)[C@H]1O[C@@](O)(C(C)C)C(=O)O[C@@H]1[C@]1(C)O[C@@]3(CC[C@]21C)COC(=O)C3`, for which the inhibition entry in experiment [1], in experiment [2] and in [5] was “Active” throughout. Further, the fold change (FC) in experiment [3] was determined as 12.2. The inhibition at 50 µM in experiment [4] was determined as 20.6%.
For `CC1=CC[C@@H](OC(=O)c2cccnc2)[C@H]2[C@@]1(C)[C@@H](OC(=O)c1cccnc1)[C@H](OC(=O)c1cccnc1)[C@]1(C)O[C@]3(CC[C@]21C)COC(=O)C3`, the results for the fold change (FC) in experiment [1] and in [3] were 2.27 and 29.6, respectively. Besides, the inhibition result in [2] and in [5] was “Active” throughout. The inhibition at 50 µM in experiment [4] was 40.6%.
On to `CC(=O)OC(C(=O)O[C@H]1[C@H](OC(=O)c2cccnc2)[C@@]2(C)C(C)=CCC[C@@H]2[C@@](C)(/C=C/C2=CC(=O)OC2)[C@@]1(C)O)C(C)C` (stereo partly drawn), for which the fold change (FC) in [3] came to 11.4. Moreover, the inhibition at 50 µM in [4] worked out at 23.8%.
Turning to `CC1=CCC[C@H]2[C@@]1(C)[C@@H](OC(=O)c1cccnc1)[C@H](OC(=O)c1ccccc1)[C@](C)(O)[C@]2(C)/C=C\C1=CC(=O)OC1`, the fold change (FC) in [3] worked out at 9. Also, the inhibition at 50 µM in experiment [4] was 17.4%.
For `CC(=O)OC[C@@]12[C@@H](OC(C)=O)C[C@@H](C)[C@](C)(C3O[C@@H]4OC[C@@H](OC(=O)c5cccnc5)[C@@H]4[C@@H]3O)[C@H]1CCC[C@]21CO1` (stereo partly drawn), the fold change (FC) in experiment [3] was 2.8. Besides, the inhibition at 50 µM in experiment [4] turned out to be 25.2%.
Turning to `CC(=O)O[C@H]1[C@H](OC(C)=O)[C@]2(C)O[C@@]3(CC[C@]2(C)[C@H]2[C@H](OC(=O)c4cccnc4)CC=C(C)[C@]12C)COC(=O)C3` (relative stereo), the inhibition entry in experiment [1], in [2] and in [5] was “Active” in each case. Further, in experiment [3], the fold change (FC) came to 11.5. Moreover, the inhibition at 50 µM in [4] worked out at 16.6%.
Turning to `CC1=CCC[C@H]2[C@@]1(C)[C@@H](OC(=O)c1cccnc1)[C@H](OC(=O)C(C)C)[C@](C)(O)[C@]2(C)/C=C/C1=CC(=O)OC1`, the fold change (FC) in [3] is 6.3. In addition, in experiment [4], the inhibition at 50 µM came to 19.1%.
For the molecule `CC(=O)O[C@@]12CO[C@@H]1C[C@H](O)[C@@]1(C)C(=O)[C@H](O)C3=C(C)[C@@H](OC(=O)[C@H](O)[C@@H](NC(=O)OC(C)(C)C)c4ccccc4)C[C@@](O)([C@@H](OC(=O)c4ccccc4)[C@H]21)C3(C)C` [DOCETAXEL ANHYDROUS], the 50% inhibitory concentration (IC50) was found to be 0.8 µM in experiment [6] and 21.2 µM in experiment [8]. The “Ratio IC50” value in experiment [7] amounted to 26.5.
Consider `CC(=O)O[C@H]1[C@H](OC(=O)c2cccnc2)[C@@]2(C)C(C)=CC[C@@H](OC(=O)c3cccnc3)[C@@H]2[C@@]2(C)CC[C@]3(COC(=O)C3)O[C@@]12C`, for which the inhibition result in [1], in experiment [2] and in experiment [5] was “Active” in each case. In addition, the fold change (FC) in [3] is 16.7. Besides, in [4], the inhibition at 50 µM is 28.5%.
For `CC1=CCC[C@H]2[C@@]1(C)[C@@H](OC(=O)c1cccnc1)[C@H](OC(=O)c1ccccc1)[C@](C)(O)[C@]2(C)/C=C/C1=CC(=O)OC1`, in experiment [3], the fold change (FC) turned out to be 10.1. Also, in experiment [4], the inhibition at 50 µM came to 23.8%.
For `COc1cccc2c1C(=O)c1c(O)c3c(c(O)c1C2=O)C[C@@](O)(C(=O)CO)C[C@@H]3O[C@H]1C[C@H](N)[C@H](O)[C@H](C)O1.Cl` [DOXORUBICIN HYDROCHLORIDE], the results for the IC50 in [6] and in experiment [8] were 1 µM and 58.8 µM, respectively. For the same molecule, the “Ratio IC50” value in experiment [7] came to 58.8.
With `CC1=CCC[C@H]2[C@@]1(C)[C@@H](OC(=O)c1cccnc1)[C@H](OC(=O)c1cccnc1)[C@](C)(O)[C@]2(C)/C=C\C1=CC(=O)OC1`, the fold change (FC) in experiment [3] is 13.1. Moreover, the inhibition at 50 µM in [4] was found to be 18.8%.
As to `CC(=O)O[C@H]1[C@H](OC(=O)c2cccnc2)[C@@]2(C)C(C)=CC[C@@H](O)[C@@H]2[C@@]2(C)[C@@H](OC(=O)c3cccnc3)C[C@@]3(COC(=O)C3)O[C@@]12C`, the inhibition result in experiment [1], in experiment [2] and in experiment [5] was “Active” each time. Moreover, the fold change (FC) in [3] came out at 29.1. Moreover, the inhibition at 50 µM in experiment [4] was determined as 14.3%.
For the molecule `CC1=CCC[C@H]2[C@@]1(C)[C@@H](OC(=O)c1cccnc1)[C@H](O)[C@](C)(O)[C@]2(C)CCC1=C(O)C(=O)OC1`, the fold change (FC) in experiment [3] came to 11.5. Further, in experiment [4], the inhibition at 50 µM was determined as 28.5%.
With `CC1=CCC[C@H]2[C@@]1(C)[C@@H](OC(=O)c1cccnc1)[C@H](OC(=O)c1cccnc1)[C@](C)(O)[C@]2(C)/C=C/C1=CC(=O)OC1`, the fold change (FC) in experiment [3] stood at 4.6. For the same molecule, the inhibition at 50 µM in [4] came out at 31.4%.
Take `CC(=O)O[C@H]1[C@H](OC(=O)c2cccnc2)[C@@]2(C)C(C)=CC[C@@H](OC(=O)c3cccnc3)[C@@H]2[C@@]2(C)CC[C@@]3(COC(=O)C3)O[C@@]12C`: the figures for the fold change (FC) in experiment [1] and in [3] were 2.36 and 37.7, respectively. Further, the inhibition result in experiment [2] and in experiment [5] was “Active” throughout. Moreover, the inhibition at 50 µM in experiment [4] was 35.7%.
Regarding `CC(=O)OC(C(=O)O[C@H]1[C@H](OC(=O)c2cccnc2)[C@@]2(C)C(C)=CCC[C@@H]2[C@@](C)(CCC2=C(O)C(=O)OC2)[C@@]1(C)O)C(C)C` (stereo partly drawn), in [3], the fold change (FC) came to 3. Besides, the inhibition at 50 µM in experiment [4] worked out at 37.6%.
Consider `CC1=CC[C@@H](O)[C@H]2[C@@]1(C)[C@@H](OC(=O)c1cccnc1)[C@H](O)[C@]1(C)O[C@]3(COC(=O)C3O)C[C@H](OC(=O)c3cccnc3)[C@]21C` (relative stereo), for which the fold change (FC) in experiment [3] was found to be 7.9. The inhibition at 50 µM in [4] is 19.5%.
Regarding `CC1=CC[C@@H](O)[C@H]2[C@@]1(C)[C@@H](OC(=O)c1cccnc1)[C@H](O)[C@]1(C)O[C@]3(COC(=O)C3)C[C@H](OC(=O)c3cccnc3)[C@]21C` (relative stereo), the fold change (FC) in [3] stood at 7.5. Also, the inhibition at 50 µM in experiment [4] is 14.6%.
